Molecules are shown by their SMILES.

The subject of experiment [1] is Plasma. Briefly: Anticoagulant activity in monkey plasma assessed as concentration causing 1.5 times prolongation of prothrombin time. It counts as functional, Macaca mulatta.
Experiment [2] deals with Coagulation factor X (Homo sapiens) (UniProt P00742). Briefly: Binding affinity to F10a.
The subject of experiment [3] is Plasma. Briefly: Anticoagulant activity in rat plasma assessed as concentration causing 1.5 times prolongation of prothrombin time. It counts as functional.
Experiment [4] relates to Plasma. Kind of experiment: Anticoagulant activity in human plasma assessed as concentration causing 1.5 times prolongation of prothrombin time. It counts as functional.
Experiment [5] relates to Plasma. Kind of experiment: Anticoagulant activity in dog plasma assessed as concentration causing 1.5 times prolongation of prothrombin time. It counts as functional, Canis lupus familiaris.

Chain of Coagulation factor X (Homo sapiens) (P00742 41-179 limits assumed): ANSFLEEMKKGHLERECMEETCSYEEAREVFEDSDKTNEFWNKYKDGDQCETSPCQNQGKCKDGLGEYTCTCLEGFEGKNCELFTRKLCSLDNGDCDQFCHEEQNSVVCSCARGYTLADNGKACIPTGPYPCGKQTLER
Chain of Coagulation factor X (Homo sapiens) (P00742 235-488 limits assumed): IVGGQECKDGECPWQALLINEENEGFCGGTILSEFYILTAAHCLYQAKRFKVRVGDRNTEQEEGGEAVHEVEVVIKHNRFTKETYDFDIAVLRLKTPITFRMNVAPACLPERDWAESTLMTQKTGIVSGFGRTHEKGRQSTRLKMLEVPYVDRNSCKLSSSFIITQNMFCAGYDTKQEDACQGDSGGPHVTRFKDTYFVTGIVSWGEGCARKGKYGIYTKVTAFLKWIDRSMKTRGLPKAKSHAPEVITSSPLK

On to `CC(C)N1CCC(CNC(=O)[C@H](NC(=O)c2ccc3c(Cl)c[nH]c3c2)c2ccccc2)CC1`, for which the Activity with Plasma [1] amounted to 0.6 µM; in the experiment with Plasma [3] it was 2.6 µM; in the experiment with Plasma [4] it was 0.5 µM; in the experiment with Plasma [5], 3.2 µM. The Kapp in experiment [2] was 460 10^6L/mol. As for `CC(C)N1CCC(COCC(NC(=O)c2ccc3c(Cl)c[nH]c3c2)c2ccccc2Cl)CC1` (stereo not drawn), the Kapp in experiment [2] was 850 10^6L/mol. In the case of `Cc1c[nH]c2cc(C(=O)N[C@@H](COCC3CCN(C(C)C)CC3)c3ccccc3)ccc12`, the Kapp in experiment [2] was 160 10^6L/mol.

Take `CC(C)N1CCC(COCC(NC(=O)c2ccc3c(Cl)c[nH]c3c2)c2ccccc2F)CC1` (stereo not drawn): in experiment [2], the Kapp is 650 10^6L/mol. On the same count and under the same terms, the result for `CC(C)N1CCC(CN(C)C[C@H](NC(=O)c2ccc3c(Cl)c[nH]c3c2)c2ccccc2)CC1` reads 60 10^6L/mol. With `CC(C)N1CCC(COC[C@H](NC(=O)c2ccc3c(Cl)c[nH]c3c2)c2ccccc2)CC1`, the Activity with Plasma [1] amounted to 0.4 µM; in the experiment with Plasma [3] it was 0.6 µM; with Plasma [4] it was 0.4 µM; in the experiment on Plasma [5], 0.8 µM. The Kapp in experiment [2] was 1700 10^6L/mol. Take `CN1CCC(COCC(NC(=O)c2ccc3c(Cl)c[nH]c3c2)c2ccccc2Cl)CC1` (stereo not drawn): the Kapp in experiment [2] is 65 10^6L/mol. Turning to `CC(C)N1CCC(CNC[C@H](NC(=O)c2ccc3c(Cl)c[nH]c3c2)c2ccccc2)CC1`, the Kapp in experiment [2] is 1200 10^6L/mol. For the compound `CC(C)[C@H](COCC1CCN(C(C)C)CC1)NC(=O)c1ccc2c(Cl)c[nH]c2c1`, in experiment [2], the Kapp is 14 10^6L/mol.

For the compound `CCN1CCC(COCC(NC(=O)c2ccc3c(Cl)c[nH]c3c2)c2ccccc2Cl)CC1` (stereo not drawn), the Kapp in experiment [2] is 150 10^6L/mol.

With `CC(C)N1CCC(CCCC(NC(=O)c2ccc3c(Cl)c[nH]c3c2)c2ccccc2)CC1` (stereo not drawn), the Kapp in experiment [2] was 700 10^6L/mol. As for `CC(C)N1CCC(COC[C@H](NC(=O)c2ccc3cc[nH]c3c2)c2ccccc2)CC1`, the Kapp in experiment [2] is 35 10^6L/mol. On to `CCCC[C@H](COCC1CCN(C(C)C)CC1)NC(=O)c1ccc2c(Cl)c[nH]c2c1`, for which the Kapp in experiment [2] is 41 10^6L/mol. In the case of `O=C(NC(COCC1CCN(c2ccncc2)CC1)c1ccccc1Cl)c1ccc2c(Cl)c[nH]c2c1` (stereo not drawn), the Kapp in experiment [2] is 1300 10^6L/mol. For the compound `COc1ccc(C(=O)N[C@@H](COCC2CCN(C(C)C)CC2)c2ccccc2)cc1`, the Kapp in experiment [2] is 3 10^6L/mol.

The values above are taken from ChEMBL document CHEMBL1140505, “D-phenylglycinol-derived non-covalent factor Xa inhibitors: effect of non-peptidic S4 linkage elements on affinity and anticoagulant activity” (2007).
